Measurements taken from PubChem BioAssay AID1963832 (Molecular Pharmacology Branch, DTP, NCI, 2024).

Test system: 885724-159-R-J1-PDC complex spheroid viability
Test: Anticancer human tumor 885724-159-R-J1-PDC patient-derived pancreatic adenocarcinoma cell line growth inhibition [POLQ]
Conditions: for IC50: curve of first compound; for viability, T/C: stronger effect = lower value
Outline: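 Complex spheroid viability model combining PDC tumour cells with endothelial (HUVEC) and MSC stromal cells. Novobiocin, ART-558 or RP6685 were tested singly and in combination with standard and investigational anticancer drugs. Each was titrated in half-log steps from near clinical Cmax, or from 10 microM where Cmax was unknown.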

[1] = second compound 0.0316 µM, first compound 0.00316 µM
[2] = second compound 0.0316 µM, first compound 0.01 µM
[3] = second compound 0.0316 µM, first compound 0.0316 µM
[4] = second compound 0.0316 µM, first compound 0.1 µM
[5] = second compound 0.0316 µM, first compound 0.316 µM
[6] = second compound 0.0316 µM, first compound 1 µM
[7] = second compound 0.1 µM, first compound 0.00316 µM
[8] = second compound 0.1 µM, first compound 0.01 µM
[9] = second compound 0.1 µM, first compound 0.0316 µM
[10] = second compound 0.1 µM, first compound 0.1 µM
[11] = second compound 0.1 µM, first compound 0.316 µM
[12] = second compound 0.1 µM, first compound 1 µM
[13] = second compound 0.316 µM, first compound 0.00316 µM
[14] = second compound 0.316 µM, first compound 0.01 µM
[15] = second compound 0.316 µM, first compound 0.0316 µM
[16] = second compound 0.316 µM, first compound 0.1 µM
[17] = second compound 0.316 µM, first compound 0.316 µM
[18] = second compound 0.316 µM, first compound 1 µM
[19] = second compound 1 µM, first compound 0.00316 µM
[20] = second compound 1 µM, first compound 0.01 µM
[21] = second compound 1 µM, first compound 0.0316 µM
[22] = second compound 1 µM, first compound 0.1 µM
[23] = second compound 1 µM, first compound 0.316 µM
[24] = second compound 1 µM, first compound 1 µM
[25] = second compound 3.16 µM, first compound 0.00316 µM
[26] = second compound 3.16 µM, first compound 0.01 µM
[27] = second compound 3.16 µM, first compound 0.0316 µM
[28] = second compound 3.16 µM, first compound 0.1 µM
[29] = second compound 3.16 µM, first compound 0.316 µM
[30] = second compound 3.16 µM, first compound 1 µM
[31] = second compound 10 µM, first compound 0.00316 µM
[32] = second compound 10 µM, first compound 0.01 µM
[33] = second compound 10 µM, first compound 0.0316 µM
[34] = second compound 10 µM, first compound 0.1 µM
[35] = second compound 10 µM, first compound 0.316 µM
[36] = second compound 10 µM, first compound 1 µM
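Further: spheroids exposed to compounds for 7 days.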

`CCc1c2c(nc3ccc(O)cc13)-c1cc3c(c(=O)n1C2)COC(=O)[C@]3(O)CC` + COC1C(OC(N)=O)C(O)C(Oc2ccc3c(O)c(NC(=O)c4ccc(O)c(CC=C(C)C)c4)c(=O)oc3c2C)OC1(C)C showed an IC50 (second compound 0.0316 µM) of 42.2 nM, an IC50 (second compound 0.1 µM) of 48.9 nM and an IC50 (second compound 0.316 µM) of 38.3 nM. The IC50 (second compound 1 µM) was 41.1 nM, the IC50 (second compound 3.16 µM) was 35.3 nM and the IC50 (second compound 10 µM) was 35.8 nM. For the same compound, the viability, T/C [1] was 66.3%, the viability, T/C [2] was 58.3% and the viability, T/C [3] was 44.8%. It also gave a viability, T/C [4] of 47.9%, a viability, T/C [5] of 29% and a viability, T/C [6] of 5.01%. For the same compound, the viability, T/C [7] was 73.1%, the viability, T/C [8] was 58.2% and the viability, T/C [9] was 47.3%. For the same compound, the viability, T/C [10] was 49.9%, the viability, T/C [11] was 28.7% and the viability, T/C [12] was 4.25%. It also gave a viability, T/C [13] of 80.1%, a viability, T/C [14] of 54.3% and a viability, T/C [15] of 48.6%. For the same compound, the viability, T/C [16] was 45.7%, the viability, T/C [17] was 30.9% and the viability, T/C [18] was 5%. It also gave a viability, T/C [19] of 75.9%, a viability, T/C [20] of 60.4% and a viability, T/C [21] of 44.1%. For the same compound, the viability, T/C [22] was 49.9%, the viability, T/C [23] was 27.6% and the viability, T/C [24] was 4.79%. For the same compound, the viability, T/C [25] was 76.4%, the viability, T/C [26] was 59% and the viability, T/C [27] was 45.1%. The viability, T/C [28] was 44.3%, the viability, T/C [29] was 30% and the viability, T/C [30] was 4.76%. For the same compound, the viability, T/C [31] was 68.7%, the viability, T/C [32] was 52.3% and the viability, T/C [33] was 48.9%. For the same compound, the viability, T/C [34] was 43.5%, the viability, T/C [35] was 27.5% and the viability, T/C [36] was 4.27%.

With `COc1cccc(OCCCN)c1-c1cc(Nc2cnc(C#N)cn2)n[nH]1` + COC1C(OC(N)=O)C(O)C(Oc2ccc3c(O)c(NC(=O)c4ccc(O)c(CC=C(C)C)c4)c(=O)oc3c2C)OC1(C)C the IC50 (second compound 0.0316 µM) was 5.21 nM, the IC50 (second compound 0.1 µM) was 7.41 nM and the IC50 (second compound 0.316 µM) was 7.34 nM. For the same compound, the IC50 (second compound 1 µM) was 8.1 nM, the IC50 (second compound 3.16 µM) was 17.6 nM and the IC50 (second compound 10 µM) was 6.72 nM. For the same compound, the viability, T/C [1] was 58.8%, the viability, T/C [2] was 45.9% and the viability, T/C [3] was 40.8%. For the same compound, the viability, T/C [4] was 41.1%, the viability, T/C [5] was 44.4% and the viability, T/C [6] was 46.8%. For the same compound, the viability, T/C [7] was 62.2%, the viability, T/C [8] was 46.1% and the viability, T/C [9] was 41.2%. For the same compound, the viability, T/C [10] was 42.3%, the viability, T/C [11] was 45.4% and the viability, T/C [12] was 39%. For the same compound, the viability, T/C [13] was 62.6%, the viability, T/C [14] was 45.3% and the viability, T/C [15] was 43.5%. The viability, T/C [16] was 46.9%, the viability, T/C [17] was 42.5% and the viability, T/C [18] was 40.8%. It also gave a viability, T/C [19] of 63.2%, a viability, T/C [20] of 48.5% and a viability, T/C [21] of 41.8%. It also gave a viability, T/C [22] of 35.9%, a viability, T/C [23] of 45.4% and a viability, T/C [24] of 46.4%. It also gave a viability, T/C [25] of 58.7%, a viability, T/C [26] of 55% and a viability, T/C [27] of 44.6%. For the same compound, the viability, T/C [28] was 44.2%, the viability, T/C [29] was 43.2% and the viability, T/C [30] was 39.6%. For the same compound, the viability, T/C [31] was 59.4%, the viability, T/C [32] was 45.4% and the viability, T/C [33] was 41.5%. For the same compound, the viability, T/C [34] was 44.3%, the viability, T/C [35] was 43.5% and the viability, T/C [36] was 45.1%.

`Nc1ccn(C2OC(CO)C(O)C2(F)F)c(=O)n1` (stereo unspecified) + COC1C(OC(N)=O)C(O)C(Oc2ccc3c(O)c(NC(=O)c4ccc(O)c(CC=C(C)C)c4)c(=O)oc3c2C)OC1(C)C showed an IC50 (second compound 0.0316 µM) of 800 nM, an IC50 (second compound 0.1 µM) of 1860 nM and an IC50 (second compound 0.316 µM) of 3110 nM. The IC50 (second compound 1 µM) was 186 nM, the IC50 (second compound 3.16 µM) was 1550 nM and the IC50 (second compound 10 µM) was over 10000 nM. For the same compound, the viability, T/C [3] was 61.7%, the viability, T/C [4] was 58.4% and the viability, T/C [5] was 51.4%. For the same compound, the viability, T/C [6] was 49.7%, the viability, T/C (second compound 0.0316 µM, first compound 3.16 µM) was 46.8% and the viability, T/C (second compound 0.0316 µM, first compound 10 µM) was 44.3%. The viability, T/C [9] was 61.6%, the viability, T/C [10] was 57.6% and the viability, T/C [11] was 54%. For the same compound, the viability, T/C [12] was 52.4%, the viability, T/C (second compound 0.1 µM, first compound 3.16 µM) was 50.4% and the viability, T/C (second compound 0.1 µM, first compound 10 µM) was 40%. It also gave a viability, T/C [15] of 67.8%, a viability, T/C [16] of 55% and a viability, T/C [17] of 52.7%. The viability, T/C [18] was 59.5%, the viability, T/C (second compound 0.316 µM, first compound 3.16 µM) was 51.8% and the viability, T/C (second compound 0.316 µM, first compound 10 µM) was 44%. For the same compound, the viability, T/C [21] was 71.1%, the viability, T/C [22] was 51.3% and the viability, T/C [23] was 48.4%. It also gave a viability, T/C [24] of 51.6%, a viability, T/C (second compound 1 µM, first compound 3.16 µM) of 45.2% and a viability, T/C (second compound 1 µM, first compound 10 µM) of 41.2%. The viability, T/C [27] was 62.2%, the viability, T/C [28] was 59.4% and the viability, T/C [29] was 52.6%. The viability, T/C [30] was 48.1%, the viability, T/C (second compound 3.16 µM, first compound 3.16 µM) was 53.9% and the viability, T/C (second compound 3.16 µM, first compound 10 µM) was 44.2%. It also gave a viability, T/C [33] of 69.6%, a viability, T/C [34] of 53.4% and a viability, T/C [35] of 52.9%. For the same compound, the viability, T/C [36] was 56.9%, the viability, T/C (second compound 10 µM, first compound 3.16 µM) was 50.5% and the viability, T/C (second compound 10 µM, first compound 10 µM) was 45.7%.
